Experimental data as given in ChEMBL document CHEMBL1156522, “Lateral compartmentalization of T cell receptor versus CD45 by galectin-N-glycan binding and microfilaments coordinate basal and activation signaling” (J Biol Chem, 2007).
pIC50: −log10 of the molar value. Activity calls are given as the source filed them. No cut-off for these calls is given here.

What was measured:
[1] = molecular target: Tyrosine-protein phosphatase non-receptor type 13 (Homo sapiens, UniProt Q12923); assay: Inhibition of protein tyrosine phosphatase N13 phosphorylation
Sequence of Tyrosine-protein phosphatase non-receptor type 13 (Q12923 whole entry): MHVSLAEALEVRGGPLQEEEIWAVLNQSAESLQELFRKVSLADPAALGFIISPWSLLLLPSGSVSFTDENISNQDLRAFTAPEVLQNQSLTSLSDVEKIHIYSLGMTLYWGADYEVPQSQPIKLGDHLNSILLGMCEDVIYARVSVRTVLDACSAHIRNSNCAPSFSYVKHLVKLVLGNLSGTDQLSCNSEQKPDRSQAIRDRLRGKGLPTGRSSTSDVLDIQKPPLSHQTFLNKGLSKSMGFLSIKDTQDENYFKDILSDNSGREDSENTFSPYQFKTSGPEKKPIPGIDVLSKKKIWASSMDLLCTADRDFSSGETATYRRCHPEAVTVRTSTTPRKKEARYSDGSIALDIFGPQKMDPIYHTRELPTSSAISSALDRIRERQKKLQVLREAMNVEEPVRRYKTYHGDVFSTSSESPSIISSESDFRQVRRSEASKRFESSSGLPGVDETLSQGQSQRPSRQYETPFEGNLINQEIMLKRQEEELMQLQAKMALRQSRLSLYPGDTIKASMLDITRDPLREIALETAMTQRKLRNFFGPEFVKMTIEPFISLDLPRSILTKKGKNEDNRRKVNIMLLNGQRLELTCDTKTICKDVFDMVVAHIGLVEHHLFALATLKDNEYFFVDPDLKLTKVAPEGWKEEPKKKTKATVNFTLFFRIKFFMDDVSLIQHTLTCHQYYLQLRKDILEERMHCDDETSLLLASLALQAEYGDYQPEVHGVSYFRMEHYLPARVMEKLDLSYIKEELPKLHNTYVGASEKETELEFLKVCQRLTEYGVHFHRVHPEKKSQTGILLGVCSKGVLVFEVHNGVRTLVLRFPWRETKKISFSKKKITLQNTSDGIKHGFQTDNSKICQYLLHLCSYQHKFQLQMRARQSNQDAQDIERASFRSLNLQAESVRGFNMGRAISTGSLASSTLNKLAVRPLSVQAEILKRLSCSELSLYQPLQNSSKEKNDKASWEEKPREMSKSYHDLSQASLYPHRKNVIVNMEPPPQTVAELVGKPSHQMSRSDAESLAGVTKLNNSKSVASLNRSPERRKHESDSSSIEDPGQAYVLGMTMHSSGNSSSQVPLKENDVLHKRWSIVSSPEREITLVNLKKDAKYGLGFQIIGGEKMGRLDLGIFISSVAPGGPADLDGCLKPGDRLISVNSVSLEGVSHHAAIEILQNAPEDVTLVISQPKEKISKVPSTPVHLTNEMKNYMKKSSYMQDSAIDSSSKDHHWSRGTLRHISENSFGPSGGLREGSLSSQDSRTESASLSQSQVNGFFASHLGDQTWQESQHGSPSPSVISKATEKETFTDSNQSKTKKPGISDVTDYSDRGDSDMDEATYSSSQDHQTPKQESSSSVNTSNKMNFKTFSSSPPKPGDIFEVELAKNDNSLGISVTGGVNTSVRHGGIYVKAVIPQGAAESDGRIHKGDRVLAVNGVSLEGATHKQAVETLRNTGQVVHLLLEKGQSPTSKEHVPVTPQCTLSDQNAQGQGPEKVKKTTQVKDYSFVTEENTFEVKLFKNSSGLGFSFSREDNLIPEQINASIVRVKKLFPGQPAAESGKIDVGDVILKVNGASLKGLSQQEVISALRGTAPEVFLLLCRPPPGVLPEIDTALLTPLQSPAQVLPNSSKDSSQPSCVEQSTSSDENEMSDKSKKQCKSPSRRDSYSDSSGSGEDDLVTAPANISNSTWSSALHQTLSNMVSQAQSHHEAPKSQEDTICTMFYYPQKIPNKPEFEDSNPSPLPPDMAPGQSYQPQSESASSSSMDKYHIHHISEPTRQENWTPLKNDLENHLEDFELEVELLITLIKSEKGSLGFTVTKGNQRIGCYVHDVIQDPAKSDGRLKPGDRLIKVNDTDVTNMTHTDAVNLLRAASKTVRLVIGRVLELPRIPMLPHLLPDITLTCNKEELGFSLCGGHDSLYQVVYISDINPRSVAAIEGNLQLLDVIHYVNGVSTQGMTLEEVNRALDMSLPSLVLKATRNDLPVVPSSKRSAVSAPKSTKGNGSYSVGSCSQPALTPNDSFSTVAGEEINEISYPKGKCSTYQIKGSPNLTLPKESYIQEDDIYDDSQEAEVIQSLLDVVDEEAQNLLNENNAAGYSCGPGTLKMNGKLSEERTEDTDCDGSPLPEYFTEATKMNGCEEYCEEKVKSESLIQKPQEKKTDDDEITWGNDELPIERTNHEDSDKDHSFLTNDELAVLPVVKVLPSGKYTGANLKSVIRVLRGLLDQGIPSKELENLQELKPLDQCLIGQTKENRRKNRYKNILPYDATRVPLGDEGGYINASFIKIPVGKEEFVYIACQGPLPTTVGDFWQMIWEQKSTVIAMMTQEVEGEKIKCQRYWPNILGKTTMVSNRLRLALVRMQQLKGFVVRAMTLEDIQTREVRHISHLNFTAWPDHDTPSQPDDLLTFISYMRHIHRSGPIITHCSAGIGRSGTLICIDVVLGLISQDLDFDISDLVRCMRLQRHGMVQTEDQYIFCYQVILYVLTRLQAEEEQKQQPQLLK

[2] = molecular target: T1, Tyrosine-protein phosphatase non-receptor type 1 (Homo sapiens, UniProt P18031); assay: Inhibition of protein tyrosine phosphatase N1 phosphorylation
T1 sequence (P18031 whole entry): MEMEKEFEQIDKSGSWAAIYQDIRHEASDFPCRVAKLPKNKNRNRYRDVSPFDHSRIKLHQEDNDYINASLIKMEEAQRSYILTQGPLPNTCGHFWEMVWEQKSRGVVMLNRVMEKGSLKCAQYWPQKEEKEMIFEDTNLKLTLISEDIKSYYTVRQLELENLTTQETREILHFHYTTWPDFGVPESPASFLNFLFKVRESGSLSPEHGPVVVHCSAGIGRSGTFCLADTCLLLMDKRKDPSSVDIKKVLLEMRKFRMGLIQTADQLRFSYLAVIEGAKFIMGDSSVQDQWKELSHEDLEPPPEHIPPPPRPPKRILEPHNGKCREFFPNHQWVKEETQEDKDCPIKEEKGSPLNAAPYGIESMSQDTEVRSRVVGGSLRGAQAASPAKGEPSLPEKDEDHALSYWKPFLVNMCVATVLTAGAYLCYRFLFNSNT

[3] = molecular target: T2, Tyrosine-protein kinase Lck (Homo sapiens, UniProt P06239); assay: Inhibition of Lck phosphorylation
Target sequence in this assay (P06239 whole entry): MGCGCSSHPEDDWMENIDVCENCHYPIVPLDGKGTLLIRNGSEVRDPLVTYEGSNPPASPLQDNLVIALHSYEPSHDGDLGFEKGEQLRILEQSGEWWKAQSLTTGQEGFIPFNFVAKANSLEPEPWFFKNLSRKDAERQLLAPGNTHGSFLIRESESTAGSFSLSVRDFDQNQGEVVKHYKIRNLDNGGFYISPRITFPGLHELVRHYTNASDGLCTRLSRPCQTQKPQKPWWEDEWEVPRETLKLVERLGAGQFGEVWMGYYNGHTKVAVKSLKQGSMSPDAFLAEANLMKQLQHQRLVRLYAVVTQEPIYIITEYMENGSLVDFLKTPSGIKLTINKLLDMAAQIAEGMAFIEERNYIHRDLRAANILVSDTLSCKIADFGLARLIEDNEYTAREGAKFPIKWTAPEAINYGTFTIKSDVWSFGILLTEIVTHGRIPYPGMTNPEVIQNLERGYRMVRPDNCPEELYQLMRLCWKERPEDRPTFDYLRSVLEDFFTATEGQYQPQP

[4] = test system: Jurkat; assay: Induction of Nck protein binding to TCR complex in human Jurkat T cells by immunoprecipitation; assay type: cell-based
[5] = test system: Jurkat; assay: Reduction of CD45 co-localization with GM1-enriched microdomain in human Jurkat T cells after 3 days; assay type: functional, cell-based
[6] = molecular target: Proto-oncogene tyrosine-protein kinase LCK (Mus musculus) (UniProt P06240); assay: Reversal of reduction of Lck Tyr394 phosphorylation in resting C57BL/6 mouse T cells at 20 uM by Western blot; assay type: cell-based; conditions: T-cell
Sequence of Proto-oncogene tyrosine-protein kinase LCK (Mus musculus) (P06240 2-509 limits assumed): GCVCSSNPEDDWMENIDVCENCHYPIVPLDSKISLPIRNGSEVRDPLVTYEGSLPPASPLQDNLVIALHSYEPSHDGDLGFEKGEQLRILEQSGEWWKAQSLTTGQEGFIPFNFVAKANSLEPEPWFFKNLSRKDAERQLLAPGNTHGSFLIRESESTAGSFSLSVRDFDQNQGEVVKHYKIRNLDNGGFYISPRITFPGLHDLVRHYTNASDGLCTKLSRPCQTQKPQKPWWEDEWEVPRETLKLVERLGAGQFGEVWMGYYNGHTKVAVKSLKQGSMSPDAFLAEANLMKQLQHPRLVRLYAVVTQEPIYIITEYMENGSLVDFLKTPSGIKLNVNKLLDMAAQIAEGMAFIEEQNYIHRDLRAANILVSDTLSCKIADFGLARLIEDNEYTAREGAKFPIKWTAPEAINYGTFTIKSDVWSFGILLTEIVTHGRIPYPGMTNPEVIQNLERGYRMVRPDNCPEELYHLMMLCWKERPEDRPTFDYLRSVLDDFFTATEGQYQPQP

[7] = molecular target: Proto-oncogene tyrosine-protein kinase LCK (Mus musculus) (UniProt P06240); assay: Reduction of Lck Tyr394 phosphorylation in resting C57BL/6 mouse T cells at 20 uM by Western blot; assay type: cell-based; conditions: T-cell
[8] = test system: T-cell; assay: Effect on CD4 distribution within GM1-enriched microdomain in C57BL/6 mouse Mgat5 expressing T cells pretreated at 20 uM; assay type: functional, cell-based
[9] = test system: T-cell; assay: Effect on TCR distribution within GM1-enriched microdomain in C57BL/6 mouse Mgat5 expressing T cells pretreated at 20 uM; assay type: functional, cell-based
[10] = test system: T-cell; assay: Effect on CD45 distribution within GM1-enriched microdomain in C57BL/6 mouse Mgat5 expressing T cells pretreated at 20 uM; assay type: functional, cell-based
[11] = test system: J-RT3-T3-5; assay: Enhancement of Lck localization within GM1-enriched microdomain in TCRbeta deficient human J.RT3-T3.5 cells by Western blot; assay type: functional
[12] = molecular target: T2, Tyrosine-protein kinase Lck; assay: Induction of Lck Tyr394 phosphorylation in CD45 deficient human Jurkat T DJ45.01 cells at 5 uM after 3 days by Western blot analysis; assay type: cell-based
Target sequence in this assay (P06239 2-509 limits assumed): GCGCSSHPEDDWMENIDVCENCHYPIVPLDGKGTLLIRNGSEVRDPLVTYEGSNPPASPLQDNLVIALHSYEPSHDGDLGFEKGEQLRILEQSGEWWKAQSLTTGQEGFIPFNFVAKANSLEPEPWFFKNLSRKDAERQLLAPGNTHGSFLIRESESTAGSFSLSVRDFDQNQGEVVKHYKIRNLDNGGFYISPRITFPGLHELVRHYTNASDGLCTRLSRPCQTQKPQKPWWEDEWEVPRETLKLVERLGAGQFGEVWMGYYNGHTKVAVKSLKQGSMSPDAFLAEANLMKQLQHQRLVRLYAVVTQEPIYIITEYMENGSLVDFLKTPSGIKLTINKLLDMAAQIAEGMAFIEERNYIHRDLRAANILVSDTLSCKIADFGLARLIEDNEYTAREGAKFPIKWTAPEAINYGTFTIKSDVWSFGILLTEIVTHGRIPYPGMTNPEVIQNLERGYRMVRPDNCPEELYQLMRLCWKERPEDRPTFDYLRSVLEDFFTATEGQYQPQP

[13] = test system: T-cell; assay: Increase T cell receptor co-localization to GM1-enriched microdomain in C57BL/6 mouse T cells pretreated for 20 mins; assay type: functional, cell-based
[14] = molecular target: T2, Tyrosine-protein kinase Lck; assay: Induction of Lck Tyr394 phosphorylation in CD4 deficient human Jurkat T D1.1 cells at 5 uM after 3 days by Western blot analysis; assay type: cell-based
Target sequence in this assay (P06239 2-509 limits assumed): as above

[15] = test system: Jurkat; assay: Increase in CD45 galectin lattice partition to GM1-enriched microdomain in CD4 deficient human Jurkat D1. 1 cells by densitometry; assay type: functional, cell-based
[16] = test system: J-RT3-T3-5; assay: Increase in CD45 galectin lattice partition to GM1-enriched microdomain TCRbeta deficient human J.RT3-T3.5 cells by densitometry; assay type: functional
[17] = species: Homo sapiens; assay: Increase in CD45 galectin lattice partition to GM1-enriched microdomain in CD45 deficient human J45.01 cells by densitometry; assay type: functional
[18] = molecular target: T3, Tyrosine-protein kinase ZAP-70 (Homo sapiens) (UniProt P43403); assay: Increase in Zap70 phosphorylation in anti-CD3-coated microbeads-stimulated CD45 deficient human J45.01 cells after 3 days
T3 sequence (whole entry): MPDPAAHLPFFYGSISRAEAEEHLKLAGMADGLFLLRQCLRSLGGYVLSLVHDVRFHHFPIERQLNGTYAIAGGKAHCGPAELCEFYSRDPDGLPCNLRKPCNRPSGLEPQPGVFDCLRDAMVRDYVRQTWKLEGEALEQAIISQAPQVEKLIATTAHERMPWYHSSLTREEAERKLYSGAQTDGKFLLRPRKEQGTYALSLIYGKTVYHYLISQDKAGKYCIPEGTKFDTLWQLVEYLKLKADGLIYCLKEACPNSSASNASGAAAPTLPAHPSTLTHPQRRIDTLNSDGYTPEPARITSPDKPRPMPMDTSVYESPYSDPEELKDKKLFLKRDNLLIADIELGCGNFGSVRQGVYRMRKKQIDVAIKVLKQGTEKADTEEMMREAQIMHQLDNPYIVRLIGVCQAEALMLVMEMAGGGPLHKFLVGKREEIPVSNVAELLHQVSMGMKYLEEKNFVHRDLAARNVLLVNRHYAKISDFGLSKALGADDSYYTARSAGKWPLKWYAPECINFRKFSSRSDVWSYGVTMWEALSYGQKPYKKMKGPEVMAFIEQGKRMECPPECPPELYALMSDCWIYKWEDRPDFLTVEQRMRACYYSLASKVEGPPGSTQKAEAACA

[19] = test system: T-cell; assay: Reduction of CD45 co-localization with GM1-enriched microdomain in resting C57BL/6 mouse T cells pretreated for 20 mins; assay type: functional, cell-based
[20] = species: Homo sapiens; assay: Increase in TCR-CD3 galectin lattice partition to GM1-enriched microdomain in CD45 deficient human J45.01 cells by densitometry; assay type: functional
[21] = molecular target: T3, Tyrosine-protein kinase ZAP-70 (Homo sapiens); assay: Induction of ZAP70 phosphorylation in human Jurkat T cells at 5 uM after 3 days by Western blot analysis; assay type: cell-based
[22] = test system: J-RT3-T3-5; assay: Increase in CD4 galectin lattice partition to GM1-enriched microdomain TCRbeta deficient human J.RT3-T3.5 cells by densitometry; assay type: functional
[23] = molecular target: T2, Tyrosine-protein kinase Lck; assay: Induction of Lck Tyr394 phosphorylation in TCRbeta deficient human Jurkat T J.RT3-T3.5 cells at 5 uM after 3 days by Western blot analysis; assay type: cell-based
Target sequence in this assay (P06239 2-509 limits assumed): as the sequence (P06239 2-509 limits assumed) above

[24] = test system: J-RT3-T3-5; assay: Increase in TCR-CD3 galectin lattice partition to GM1-enriched microdomain TCRbeta deficient human J.RT3-T3.5 cells by densitometry; assay type: functional
[25] = test system: T-cell; assay: Increase CD4 co-localization to GM1-enriched microdomain in C57BL/6 mouse T cells pretreated for 20 mins; assay type: functional, cell-based
[26] = molecular target: T4, Linker for activation of T-cells family member 1 (Homo sapiens) (UniProt O43561); assay: Induction of LAT phosphorylation in human Jurkat T cells at 5 uM after 3 days by Western blot analysis; assay type: cell-based
T4 sequence (whole entry): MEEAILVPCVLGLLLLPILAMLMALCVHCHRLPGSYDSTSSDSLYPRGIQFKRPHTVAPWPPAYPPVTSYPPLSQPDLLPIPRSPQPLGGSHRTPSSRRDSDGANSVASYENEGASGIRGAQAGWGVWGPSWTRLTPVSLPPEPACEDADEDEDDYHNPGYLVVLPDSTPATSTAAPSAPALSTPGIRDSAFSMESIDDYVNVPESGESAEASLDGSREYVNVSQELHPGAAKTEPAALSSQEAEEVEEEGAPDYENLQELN

[27] = test system: Jurkat; assay: Reduction of CD4 surface expression in Lck deficient human Jurkat T cells by flow cytometry; assay type: functional, cell-based
[28] = molecular target: T4, Linker for activation of T-cells family member 1 (Homo sapiens); assay: Increase in LAT phosphorylation in anti-CD3-coated microbeads-stimulated CD45 deficient human J45.01 cells after 3 days
[29] = test system: Jurkat; assay: Increase in TCR-CD3 galectin lattice partition to GM1-enriched microdomain in human Jurkat T cells by densitometry; assay type: functional, cell-based
[30] = test system: Jurkat; assay: Enhancement of Lck localization within GM1-enriched microdomain in CD4 deficient human Jurkat D1. 1 cells by Western blot; assay type: functional, cell-based
[31] = test system: Jurkat; assay: Enhancement of Lck localization within GM1-enriched microdomain in human Jurkat T cells by Western blot; assay type: functional, cell-based
[32] = species: Homo sapiens; assay: Enhancement of Lck localization within GM1-enriched microdomain in CD45 deficient human J45.01 cells by Western blot; assay type: functional
[33] = species: Homo sapiens; assay: Increase in ZAP70 expression in GM1-enriched microdomain of Lck defient human JCaM1.6 cells by Western blot; assay type: functional
[34] = molecular target: T2, Tyrosine-protein kinase Lck; assay: Induction of Lck Tyr394 phosphorylation in human Jurkat T cells at 5 uM after 3 days by Western blot analysis; assay type: cell-based
Target sequence in this assay (P06239 2-509 limits assumed): as the sequence (P06239 2-509 limits assumed) above

[35] = test system: Jurkat; assay: Increase in CD45 galectin lattice partition to GM1-enriched microdomain in human Jurkat T cells by densitometry; assay type: functional, cell-based
[36] = test system: Jurkat; assay: Increase in ZAP70 expression in GM1-enriched microdomain of human Jurkat T cells by Western blot; assay type: functional, cell-based
[37] = test system: Jurkat; assay: Increase in TCR-CD3 galectin lattice partition to GM1-enriched microdomain in CD4 deficient human Jurkat D1. 1 cells by densitometry; assay type: functional, cell-based
[38] = species: Homo sapiens; assay: Increase in CD4 galectin lattice partition to GM1-enriched microdomain in CD45 deficient human J45.01 cells by densitometry; assay type: functional
[39] = test system: Jurkat; assay: Increase in CD4 galectin lattice partition to GM1-enriched microdomain in human Jurkat T cells by densitometry; assay type: functional, cell-based

`CC(C)(C)C(=O)Nc1ccc2c(c1)C(=O)C(=O)c1ccccc1-2` showed a pIC50 [1] of under 4.52, a pIC50 [2] of under 4.52 and a pIC50 [3] of 5.42.
In the case of LACTOSE, ANHYDROUS, the Activity [4] was “Active” and the Activity [5] was “Active”.
`C/C1=C/C(=O)O[C@@H]2C[C@@H](CC[C@H](C)/C=C\C=C\CC1)O[C@@](O)([C@@H]1CSC(=O)N1)C2` was tested, and the Activity [6] was “Active” and the Activity [7] was “Active”.
For `CC(C)(C)n1nc(-c2ccc(Cl)cc2)c2c(N)ncnc21`, the Activity [8] was “inactive”, the Activity [9] was “inactive” and the Activity [10] was “inactive”.
With `O[C@H]1[C@H]2[C@H](O)CCCN2C[C@H]1O` the Activity [11] was “inactive”, the Activity [12] was “inactive” and the Activity [13] was “Active”. For the same compound, the Activity [14] was “inactive”, the Activity [15] was “Active” and the Activity [16] was “Active”. For the same compound, the Activity [17] was “Active”, the Activity [18] was “inactive” and the Activity [19] was “Active”. The Activity [20] was “Active”, the Activity [21] was “Active” and the Activity [22] was “Active”. For the same compound, the Activity [23] was “inactive”, the Activity [24] was “Active” and the Activity [25] was “Active”. For the same compound, the Activity [26] was “Active”, the Activity [27] was “Active” and the Activity [28] was “inactive”. For the same compound, the Activity [29] was “Active”, the Activity [30] was “Active” and the Activity [31] was “Active”. The Activity [32] was “Active”, the Activity [4] was “Active” and the Activity [33] was “inactive”. The Activity [34] was “Active”, the Activity [35] was “Active” and the Activity [36] was “Active”. For the same compound, the Activity [37] was “Active”, the Activity [38] was “inactive” and the Activity [39] was “Active”.
